Assay results taken from patent US10059713B2 (Takeda Pharmaceutical Company Limited, priority 2014, dated 2018).

Biological target: human GPR43 (Homo sapiens (Human), UniProt O15552)
Test: Ca-Flux functional assay: determination of agonist/positive allosteric modulator (PAM) activity
Assay type: cell-based
Conditions: CHO-K1 Gα16 cells stably expressing human GPR43; compound added with EC20 sodium acetate; intracellular Ca2+ by FLIPR; does not distinguish agonist from PAM
Method: Ca-Flux Functional Assay: Determination of Agonist/Positive Allosteric Modulator (PAM) Activity
GPR43 agonist/PAM activity was determined by measuring changes in intracellular calcium levels using a Ca^2+ sensitive fluorescent dye. The changes in fluorescent signal were monitored by FLIPR (manufactured by Molecular Devices). GPR43 mediated increases in intracellular Ca^2+ concentration were readily detected upon activation with sodium acetate. Prior to the assay (24 hours), CHO-K1 Gα16 cells stably expressing human GPR43 were-seeded in cell culture medium in black, clear-bottom 384-well plates (Corning Inc) and grown overnight at 37° C., 5% CO2. On the day of the assay, cell culture media was removed and cells were loaded with Calcium 5 Dye (Molecular Devices) diluted in HBSS containing 25 mM HEPES, 2.5 mM Probenecid, 0.1% BSA for 1 hour at 37° C., 5% CO2. 10 point half log concentration response curves of sodium acetate from 10 mM were conducted prior to the testing of compounds to calculate the sodium acetate concentration that produces 20% of the maximal response (EC20). Test compounds (at 10 point half log concentration response curves from 10 μM) were added in the presence of sodium acetate to achieve a final concentration that produces approximately 20% maximal response as calculated from the previous experiment. The changes in fluorescent signal were monitored by FLIPR upon addition of the compound/EC20 sodium acetate mix. The EC50 values were determined from ten point concentration response curves. Curves were generated using the average of two wells for each data point.
The above assay detects both GPR43 receptor agonists and positive allosteric modulators of the GPR43 receptor, without distinguishing between the two. Activity in either regard is useful in the treatment of conditions associated with GPR43 receptor activity.

human GPR43, sequence (O15552 whole entry): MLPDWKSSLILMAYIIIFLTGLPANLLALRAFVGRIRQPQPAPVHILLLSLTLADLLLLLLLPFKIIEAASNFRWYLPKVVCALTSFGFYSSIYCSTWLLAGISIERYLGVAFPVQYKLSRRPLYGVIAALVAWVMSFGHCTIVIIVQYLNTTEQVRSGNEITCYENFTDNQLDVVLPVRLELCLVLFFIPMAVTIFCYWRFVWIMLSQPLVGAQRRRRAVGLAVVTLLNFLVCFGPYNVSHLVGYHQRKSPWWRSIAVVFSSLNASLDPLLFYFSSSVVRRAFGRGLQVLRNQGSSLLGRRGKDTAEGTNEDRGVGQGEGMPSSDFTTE

| SMILES | EC50 [µM] |
| --- | --- |
| Cc1nc(C2CCCCC2)c2[nH]c(N)c(S(=O)(=O)c3ccccc3)c2n1 [Example 40, 7-(benzenesulfonyl)-4-cyclohexyl-2-methyl-5H-pyrrolo[3,2-d]pyrimidin-6-amine] | 0.055 |
| CCC1(C)CN(c2ncnc3c(S(=O)(=O)c4ccccc4)c(N)[nH]c23)CCO1 (stereo not drawn) [Example 221, 7-(benzenesulfonyl)-4-(2-ethyl-2-methylmorpholin-4-yl)-5H-pyrrolo[3,2-d]pyrimidin-6-amine] | 0.104 |
| Nc1[nH]c2c(C3=CCCCC3)ncnc2c1S(=O)(=O)c1ccc(OC(F)F)cc1 [Example 33, 4-(cyclohex-1-en-1-yl)-7-{[4-(difluoromethoxy)benzene]sulfonyl}-5H-pyrrolo[3,2-d]pyrimidin-6-amine] | 0.052 |
| C=C(C)c1nc(C)nc2c(S(=O)(=O)c3ccccc3)c(N)[nH]c12 [Example 149, 7-(benzenesulfonyl)-2-methyl-4-(prop-1-en-2-yl)-5H-pyrrolo[3,2-d]pyrimidin-6-amine] | 0.252 |
| Nc1[nH]c2c(OCC3CC3(F)F)ncnc2c1S(=O)(=O)c1ccccc1 (stereo not drawn) [Example 175, 7-(benzenesulfonyl)-4-[(2,2-difluorocyclopropyl)methoxy]-5H-pyrrolo[3,2-d]pyrimidin-6-amine] | 0.373 |
| Nc1[nH]c2c(NCC3CC3)ncnc2c1S(=O)(=O)c1ccccc1 [Example 70, 7-(benzenesulfonyl)-4-N-(cyclopropylmethyl)-5H-pyrrolo[3,2-d]pyrimidine-4,6-diamine] | 0.763 |
| CN(c1ncnc2c(S(=O)(=O)c3ccccc3)c(N)[nH]c12)C1CC1 [Example 98, 7-(benzenesulfonyl)-4-N-cyclopropyl-4-N-methyl-5H-pyrrolo[3,2-d]pyrimidine-4,6-diamine] | 0.648 |
| Nc1[nH]c2c(N3CCC(F)(F)CC3)ncnc2c1S(=O)(=O)c1ccccc1F [Example 74, 4-(4,4-difluoropiperidin-1-yl)-7-(2-fluorobenzenesulfonyl)-5H-pyrrolo[3,2-d]pyrimidin-6-amine] | 0.009 |

Second part, the compound after the results:

| EC50 [µM] | SMILES |
| --- | --- |
| 0.273 | Nc1[nH]c2c(N3CCOCC3)ncnc2c1S(=O)(=O)c1ccccc1 [Example 6, 7-(benzenesulfonyl)-4-(morpholin-4-yl)-5H-pyrrolo[3,2-d]pyrimidin-6-amine] |
| 0.013 | Cc1nc(N2CCOC(C)(C)C2)c2[nH]c(N)c(S(=O)(=O)c3ccccc3)c2n1 [Example 139, 7-(benzenesulfonyl)-4-(2,2-dimethylmorpholin-4-yl)-2-methyl-5H-pyrrolo[3,2-d]pyrimidin-6-amine] |
| 0.005 | Cc1nc(N2CCOC(C)C2)c2[nH]c(N)c(S(=O)(=O)c3ccc(F)cc3F)c2n1 (stereo not drawn) [Example 262, 7-(2,4-difluorobenzenesulfonyl)-2-methyl-4-(2-methylmorpholin-4-yl)-5H-pyrrolo[3,2-d]pyrimidin-6-amine] |
| 0.015 | COc1ccc(S(=O)(=O)c2c(N)[nH]c3c(N4CCCC(C)C4)ncnc23)cc1 (stereo not drawn) [Example 106, 7-(4-methoxybenzenesulfonyl)-4-(3-methylpiperidin-1-yl)-5H-pyrrolo[3,2-d]pyrimidin-6-amine] |
| 0.045 | CSc1nc(N2CCOC(C)C2)c2[nH]c(N)c(S(=O)(=O)c3cccc(F)c3)c2n1 (stereo not drawn) [Example 264, 7-(3-fluorobenzenesulfonyl)-4-(2-methylmorpholin-4-yl)-2-(methylsulfanyl)-5H-pyrrolo[3,2-d]pyrimidin-6-amine] |
| 0.008 | COc1nc(N2CCOC(C)C2)c2[nH]c(N)c(S(=O)(=O)c3ccccc3F)c2n1 (stereo not drawn) [Example 271, 7-(2-fluorobenzenesulfonyl)-2-methoxy-4-(2-methylmorpholin-4-yl)-5H-pyrrolo[3,2-d]pyrimidin-6-amine] |
| 0.006 | Cc1nc(N2CCOC(C)(C)C2)c2[nH]c(N)c(S(=O)(=O)c3ccccc3F)c2n1 [Example 185, 4-(2,2-dimethylmorpholin-4-yl)-7-(2-fluorobenzenesulfonyl)-2-methyl-5H-pyrrolo[3,2-d]pyrimidin-6-amine] |
